Data on one compound can be found in article PMC4822253, “Inhibition of BMP and of TGFβ receptors downregulates expression of XIAP and TAK1 leading to lung cancer cell death” (Molecular Cancer, 2016).

The target of this assay is T1, BMPRII (Homo sapiens, UniProt Q13873).
T1 construct: purchased Reaction Biology Corporation (Malvern, PA)
T1 sequence (Q13873 27-1038): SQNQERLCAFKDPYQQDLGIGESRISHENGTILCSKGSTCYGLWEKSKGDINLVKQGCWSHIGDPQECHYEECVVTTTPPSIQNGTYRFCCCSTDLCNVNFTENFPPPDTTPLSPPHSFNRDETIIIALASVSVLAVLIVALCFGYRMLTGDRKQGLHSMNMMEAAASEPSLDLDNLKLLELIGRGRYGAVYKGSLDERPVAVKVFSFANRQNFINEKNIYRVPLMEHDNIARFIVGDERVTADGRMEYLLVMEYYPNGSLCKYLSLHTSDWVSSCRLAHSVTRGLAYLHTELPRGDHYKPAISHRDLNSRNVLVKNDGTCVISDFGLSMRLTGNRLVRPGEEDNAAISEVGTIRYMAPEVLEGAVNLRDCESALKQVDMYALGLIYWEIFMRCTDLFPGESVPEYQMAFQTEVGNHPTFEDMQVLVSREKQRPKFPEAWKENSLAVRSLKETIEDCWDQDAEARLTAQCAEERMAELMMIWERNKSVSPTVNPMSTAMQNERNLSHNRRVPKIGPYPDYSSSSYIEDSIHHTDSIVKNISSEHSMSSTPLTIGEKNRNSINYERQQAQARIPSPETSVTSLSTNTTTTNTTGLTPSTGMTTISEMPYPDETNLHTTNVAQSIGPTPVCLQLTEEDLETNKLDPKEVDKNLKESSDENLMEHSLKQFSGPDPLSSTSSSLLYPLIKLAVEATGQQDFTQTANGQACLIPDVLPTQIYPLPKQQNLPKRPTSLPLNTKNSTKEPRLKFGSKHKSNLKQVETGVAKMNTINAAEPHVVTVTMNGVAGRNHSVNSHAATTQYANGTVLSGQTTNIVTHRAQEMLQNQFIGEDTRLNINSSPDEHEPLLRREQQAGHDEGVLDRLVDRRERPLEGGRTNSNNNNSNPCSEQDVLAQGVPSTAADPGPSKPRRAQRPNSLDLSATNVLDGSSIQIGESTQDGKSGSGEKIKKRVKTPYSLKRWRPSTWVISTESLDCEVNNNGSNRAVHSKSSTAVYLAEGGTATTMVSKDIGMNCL
The assay is described as follows: In vitro kinase IC50. Format: biochemical. The following applies: kinase activity; ATP 10 Micromolar; 10-point, duplicate. The source says: The ATP concentration was 10 Micromolar.

One may read the IC50 as the point on the concentration scale where inhibition reaches its midpoint.

Consider `c1ccc2c(-c3cnn4cc(-c5ccc(OCCN6CCOCC6)cc5)cnc34)ccnc2c1` [DMH2], for which the IC50 worked out at 7.95 µM.
